Results as given in patent publication US20250346585A1 (Alexion Pharmaceuticals, Inc., priority 2022, published 2025).

Target: Human complement C1s enzyme (Homo sapiens (Human), UniProt P09871)
Experiment: Human C1s enzyme assay
Type: biochemical
Conditions: Human C1s enzyme assay of Example 3; read-out: IC50 (Stars)
In short: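 Purified serum-derived human C1s (1.16 nM final) preincubated 5 min at room temperature with compound in 50 mM Tris, 1 M NaCl, pH 7.5. Z-L-Lys-SBzl thioester substrate and DTNB added (100 μM each, final); A405 read every 30 s for 30 min. IC50 from nonlinear regression of reaction rates against compound concentration.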

Chain of Human complement C1s enzyme (P09871 438-688 limits assumed): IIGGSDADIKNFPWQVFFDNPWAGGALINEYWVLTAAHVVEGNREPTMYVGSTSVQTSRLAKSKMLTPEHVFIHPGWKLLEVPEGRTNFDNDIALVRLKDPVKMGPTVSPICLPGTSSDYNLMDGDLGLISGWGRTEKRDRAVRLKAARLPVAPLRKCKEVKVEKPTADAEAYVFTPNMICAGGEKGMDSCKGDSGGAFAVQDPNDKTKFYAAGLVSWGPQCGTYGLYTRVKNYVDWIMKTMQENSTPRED
Chain of Human complement C1s enzyme (P09871 16-437 partner limits assumed): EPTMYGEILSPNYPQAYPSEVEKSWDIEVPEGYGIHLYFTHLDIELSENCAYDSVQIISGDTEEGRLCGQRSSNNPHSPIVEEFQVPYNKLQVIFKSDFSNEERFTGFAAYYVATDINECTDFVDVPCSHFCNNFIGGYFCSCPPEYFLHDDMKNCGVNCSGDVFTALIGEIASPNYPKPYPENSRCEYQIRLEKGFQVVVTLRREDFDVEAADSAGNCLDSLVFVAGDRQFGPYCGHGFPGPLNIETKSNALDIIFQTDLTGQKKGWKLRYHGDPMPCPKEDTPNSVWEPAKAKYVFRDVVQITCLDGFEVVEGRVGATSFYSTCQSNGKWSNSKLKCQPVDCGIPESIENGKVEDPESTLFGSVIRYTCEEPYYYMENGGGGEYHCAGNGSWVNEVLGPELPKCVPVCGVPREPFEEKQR

SMILES	IC50 [nM]
COC[C@@]12C[C@@H]1N(C(=O)CNC(=O)c1ccc(Oc3ccc(F)cc3)cc1)[C@H](C(=O)N[C@H](C)c1ccc(C(=N)N)s1)C2 [Compound 38, (1S,3S,5R)—N—((R)-1-(5-carbamimidoylthiophen-2-yl)ethyl)-2-((4-(4-fluorophenoxy)benzoyl)glycyl)-5-(methoxymethyl)-2-azabicyclo[3.1.0]-hexane-3-carboxamide]	< 100
C[C@@H](NC(=O)[C@@H]1C[C@@H](OC(F)F)CN1C(=O)CNC(=O)c1ccc(C(F)(F)c2ccccc2)cc1)c1cc(C(=N)N)cs1 [Compound 131, (2S,4R)—N—((R)-1-(4-carbamimidoylthiophen-2-yl)ethyl)-1-((4-(difluoro(phenyl)methyl)benzoyl)glycyl)-4-(difluoromethoxy)pyrrolidine-2-carboxamide]	< 100
CC(NC(=O)[C@@H]1CC2(CN1C(=O)CNC(=O)c1ccc(-c3ccc(Cl)cn3)cc1)OCCO2)c1cc(C(=N)N)cs1 (stereo in doubt) [Compound 151, (S)—N—((S)-1-(4-carbamimidoylthiophen-2-yl)ethyl)-7-((4-(5-chloropyridin-2-yl)benzoyl)glycyl)-1,4-dioxa-7-azaspiro[4.4]nonane-8-carboxamide]	< 100
C[C@@H](NC(=O)[C@@H]1CC2(CN1C(=O)CNC(=O)c1ccc3c(c1)-c1ccccc1C3(F)F)OCCO2)c1cc(-c2cc[nH]n2)cs1 [Compound 97, (S)—N—((R)-1-(4-(1H-pyrazol-3-yl)thiophen-2-yl)ethyl)-7-((9,9-difluoro-9H-fluorene-3-carbonyl)glycyl)-1,4-dioxa-7-azaspiro[4.4]nonane-8-carboxamide]	> 1000
Cc1cc(C(=O)NCC(=O)N2[C@H]3C[C@@]3(C)C[C@H]2C(=O)N[C@H](C)c2ccc(C(=N)N)s2)ccc1Oc1ccccc1 [Compound 31, (1S,3S,5S)—N—((R)-1-(5-carbamimidoylthiophen-2-yl)ethyl)-5-methyl-2-((3-methyl-4-phenoxybenzoyl)glycyl)-2-azabicyclo[3.1.0]hexane-3-carboxamide]	< 100
C[C@@H](NC(=O)[C@@H]1CC2(CN1C(=O)CNC(=O)c1ccc3c(c1)-c1ccccc1C3(F)F)OCCO2)c1cc(-c2cncnc2)cs1 [Compound 91, (S)-7-((9,9-difluoro-9H-fluorene-3-carbonyl)glycyl)-N—((R)-1-(4-(pyrimidin-5-yl)thiophen-2-yl)ethyl)-1,4-dioxa-7-azaspiro[4.4]nonane-8-carboxamide]	> 1000
C[C@@H](NC(=O)[C@@H]1C[C@@H](OC(F)F)CN1C(=O)CNC(=O)c1ccc(Oc2ccc(Cl)cc2)cc1)c1cc(C(=N)N)cs1 [Compound 43, (2S,4R)—N—((R)-1-(4-carbamimidoylthiophen-2-yl)ethyl)-1-((4-(4-chlorophenoxy)benzoyl)glycyl)-4-(difluoromethoxy)pyrrolidine-2-carboxamide]	< 100
COC[C@@]1(F)C[C@@H](C(=O)N[C@H](C)c2cc(C(=N)N)cs2)N(C(=O)CNC(=O)c2ccc(C(F)(F)c3ccccc3)cc2)C1 [Compound 136, (2S,4R)—N—((R)-1-(4-carbamimidoylthiophen-2-yl)ethyl)-1-((4-(difluoro(phenyl)methyl)benzoyl)glycyl)-4-fluoro-4-(methoxymethyl)pyrrolidine-2-carboxamide]	< 100
C[C@@H](NC(=O)[C@@H]1C[C@]2(CO)C[C@@H]2N1C(=O)CNC(=O)c1ccc(Oc2ccc(F)cc2)cc1)c1ccc(C(=N)N)s1 [Compound 41, (1S,3S,5R)—N—((R)-1-(5-carbamimidoylthiophen-2-yl)ethyl)-2-((4-(4-fluorophenoxy)benzoyl)glycyl)-5-(hydroxymethyl)-2-azabicyclo[3.1.0]hexane-3-carboxamide]	< 100
C[C@@H](NC(=O)[C@@H]1C[C@@H](OC(F)F)CN1C(=O)CNC(=O)c1ccc2c(c1)-c1ccccc1C2(F)F)c1ccc(C(=N)N)s1 [Compound 30, (2S,4R)—N—((R)-1-(5-carbamimidoylthiophen-2-yl)ethyl)-1-((9,9-difluoro-9H-fluorene-3-carbonyl)glycyl)-4-(difluoromethoxy)pyrrolidine-2-carboxamide]	< 100
COC[C@@]1(F)C[C@@H](C(=O)N[C@H](C)c2cc(C(=N)N)cs2)N(C(=O)CNC(=O)c2ccc3c(c2)-c2ccccc2C3(F)F)C1 [Compound 20, (2S,4R)—N—((R)-1-(4-carbamimidoylthiophen-2-yl)ethyl)-1-((9,9-difluoro-9H-fluorene-3-carbonyl)glycyl)-4-fluoro-4-(methoxymethyl)pyrrolidine-2-carboxamide]	< 100
O=C(NCC(=O)N1CC2(C[C@H]1C(=O)NCc1cc(NC3=NCCCN3)cs1)OCCO2)c1ccc(Oc2ccc(F)cc2)cc1 [Compound 142, (S)-7-((4-(4-fluorophenoxy)benzoyl)glycyl)-N-((4-((1,4,5,6-tetrahydropyrimidin-2-yl)amino)thiophen-2-yl)methyl)-1,4-dioxa-7-azaspiro[4.4]nonane-8-carboxamide]	> 1000

Further lines, results first:

IC50 [nM]	SMILES
< 100	C[C@@H](NC(=O)[C@@H]1C[C@H](c2nccs2)CN1C(=O)CNC(=O)c1ccc2c(c1)-c1ccccc1C2(F)F)c1cc(C(=N)N)cs1 [Compound 172, (2S,4S)—N—((R)-1-(4-carbamimidoylthiophen-2-yl)ethyl)-1-((9,9-difluoro-9H-fluorene-3-carbonyl)glycyl)-4-(thiazol-2-yl)pyrrolidine-2-carboxamide]
< 100	C[C@@H](NC(=O)[C@@H]1CC2(CN1C(=O)CNC(=O)c1ccc(-c3ccc(F)cc3)c(F)c1)OCCO2)c1cc(C(=N)N)cs1 [Compound 175, (S)—N—((R)-1-(4-carbamimidoylthiophen-2-yl)ethyl)-7-((2,4′-difluoro-[1,1′-biphenyl]-4-carbonyl)glycyl)-1,4-dioxa-7-azaspiro[4.4]nonane-8-carboxamide]
< 100	N=C(N)c1csc(CNC(=O)[C@@H]2CC3(CN2C(=O)CNC(=O)c2ccc(-c4ccsc4)cc2)OCCO3)c1 [Compound 165, (S)-N-((4-carbamimidoylthiophen-2-yl)methyl)-7-((4-(thiophen-3-yl)benzoyl)glycyl)-1,4-dioxa-7-azaspiro[4.4]nonane-8-carboxamide]

Same assay, conditions: Human complement C1s enzyme 1.16 nM, substrate Z-L-Lys-SBzl 100 μM, assay of Example 3; read-out: IC50 (Stars)

SMILES	IC50 [nM]
C[C@@H](NC(=O)[C@@H]1C[C@@H]([S@@](C)(=N)=O)CN1C(=O)CNC(=O)c1ccc2c(c1)-c1ccccc1C2(F)F)c1cc(C(=N)N)cs1 [Compound 252, (2S,4R)—N—((R)-1-(4-carbamimidoylthiophen-2-yl)ethyl)-1-((9,9-difluoro-9H-fluorene-3-carbonyl)glycyl)-4-((S)—S-methylsulfonimidoyl)pyrrolidine-2-carboxamide]	< 100
C[C@@H](NC(=O)[C@@H]1CC2(CN1C(=O)CNC(=O)c1ccc3c(c1)-c1ccccc1C3OC(F)F)OCCO2)c1cc(C(=N)N)cs1 (stereo partly drawn) [Compound 204]	< 100
Nc1cccc(Nc2csc(CNC(=O)[C@@H]3CC4(CN3C(=O)CNC(=O)c3ccc(Oc5ccc(F)cc5)cc3)OCCO4)c2)n1 [Compound 285, (S)-N-((4-((6-aminopyridin-2-yl)amino)thiophen-2-yl)methyl)-7-((4-(4-fluorophenoxy)benzoyl)glycyl)-1,4-dioxa-7-azaspiro[4.4]nonane-8-carboxamide]	> 1000
COC[C@H]1C[C@@H](C(=O)N[C@H](C)c2cc(C(=N)N)cs2)N(C(=O)CNC(=O)c2ccc3oc4ccccc4c3c2)C1 (relative stereo) [Compound 219, (2S,4S*)—N—((R)-1-(4-carbamimidoylthiophen-2-yl)ethyl)-1-((dibenzo[b,d]furan-2-carbonyl)glycyl)-4-(methoxymethyl)pyrrolidine-2-carboxamide]	< 100
C[C@@H](NC(=O)[C@@H]1C[C@]2(COCCCN)C[C@@H]2N1C(=O)CNC(=O)c1ccc2c(c1)-c1ccccc1C2(F)F)c1cc(C(=N)N)cs1 [Compound 382, (1S,3S,5R)-5-((3-aminopropoxy)methyl)-N—((R)-1-(4-carbamimidoylthiophen-2-yl)ethyl)-2-((9,9-difluoro-9H-fluorene-3-carbonyl)glycyl)-2-azabicyclo[3.1.0]hexane-3-carboxamide]	< 100
C[C@@H](NC(=O)[C@@H]1C[C@]2(C)C[C@@H]2N1C(=O)CNC(=O)c1ccc(Oc2ccccc2)cc1)c1cc(CC(=N)N)cs1 [Compound 276, (1S,3S,5S)—N—((R)-1-(4-(2-amino-2-iminoethyl)thiophen-2-yl)ethyl)-5-methyl-2-((4-phenoxybenzoyl)glycyl)-2-azabicyclo[3.1.0]hexane-3-carboxamide]	< 100
C[C@@H](NC(=O)[C@@H]1C[C@@H](S(C)(=O)=O)CN1C(=O)CNC(=O)c1cccc(-c2ccc(F)cc2)c1)c1cc(C(=N)N)cs1 [Compound 334, (2S,4R)—N—((R)-1-(4-carbamimidoylthiophen-2-yl)ethyl)-1-((4′-fluoro-[1,1′-biphenyl]-3-carbonyl)glycyl)-4-(methylsulfonyl)pyrrolidine-2-carboxamide]	< 100
C[C@@H](NC(=O)[C@@H]1C[C@](F)(CF)CN1C(=O)CNC(=O)c1ccc2[nH]c3ccccc3c2c1)c1cc(C(=N)N)cs1 [Compound 341, N-(2-((2S,4R)-2-(((R)-1-(4-carbamimidoylthiophen-2-yl)ethyl)carbamoyl)-4-fluoro-4-(fluoromethyl)pyrrolidin-1-yl)-2-oxoethyl)-9H-carbazole-3-carboxamide]	< 100
C[C@@H](NC(=O)[C@@H]1C[C@@H](Oc2ccccc2)CN1C(=O)CNC(=O)c1ccc2oc3ccccc3c2c1)c1cc(C(=N)N)cs1 [Compound 248, (2S,4R)—N—((R)-1-(4-carbamimidoylthiophen-2-yl)ethyl)-1-((dibenzo[b,d]furan-2-carbonyl)glycyl)-4-phenoxypyrrolidine-2-carboxamide]	< 100
